# US5409949A, “Methylen-oxindole derivatives compositions and tyrosine kinase inhibition therewith” (Farmitalia Carlo Erba S.r.l., priority 1991, dated 1995)
# Assays:
# v-abl kinase [1] = assay: Myelin Basic Protein phosphorylation assay; format: biochemical; conditions: myelin basic protein 56 μM as substrate, 10 μM cold ATP, pH 8.0, 22° C.
# Protocol: (§1) The tyrosine specific protein kinase activity of these compounds is shown by the in vitro tests described herebelow.
# (§2) The enzyme used in the Abelson tyrosine kinase p95^v-ab which was produced and isolated as follows: 1 Liter cultures of HB-130 cells in LB medium, supplemented with ampicillin, were grown at 30° C. as described by Wang et al. in J. Biol. Chem. 260, 64 (1985). The expression of v-abl protein was induced by shifting the temperature to 42° C. for 3-4 h. The bacterial cells were collected on ice, centrifuged and frozen in liquid nitrogen. The cell pellet was lysed as described by Ferguson et al. in J. Biol. Chem. 260, 3652 (1985) and in Biochem. J. 257, 321 (1989). Briefly, bacterial proteins were removed by differential solubilization with sodium deoxycholate, NaCl and β-octylglucopyranoside in different steps. Insoluble v-abl protein was solubilized with 2M KSCN and dialyzed against 100 volumes of 50 mM Tris-HCl, pH 7.5, 1 mM EDTA and 0.1 mM dithiothreitol (buffer A). The soluble proteins were separated by chromatography on a prepacked Mono-Q anion exchange column in a f.p.l.c. system. […]
# The in vitro test with Myelin Basic Protein as substrate was carried out as follows: Protein phosphorylation was performed by incubating 40 ng of purified v-abl kinase, 1.5 μCi […] Bands were located by autoradiography, excised from gel and counted in a liquid scintillation counter.
# v-abl kinase [2] = assay: Autophosphorylation assay (v-abl kinase); format: biochemical; conditions: immunoprecipitated v-abl kinase, 10 μM ATP, 15 min, room temperature
# Protocol: as §1
# as §2, with “A).” for “A). The soluble proteins were separated by chromatography on a prepacked Mono-Q anion exchange column in a f.p.l.c. system.”
# For the autophosphorylation assay the v-abl kinase was immunoprecipitated with antiphosphotyrosine antibodies and the resulting immunocomplex analyzed in 50 μl of kinase buffer in the presence of 10 μM ATP and 10 μCi […]. […] Bands were located by autoradiography, excised and counted as above. […]
smiles,measurement,setting,value
O=C1Nc2ccccc2C1=Cc1c[nH]c2ccccc12 [3-[(3'-indolyl)methylen]-2-oxindole],IC50,v-abl kinase [1],600 nM
same,IC50,v-abl kinase [2],10000 nM
O=C1Nc2ccc(O)cc2C1=Cc1c[nH]c2ccccc12 [5-Hydroxy-3-[(3'-indolyl)methylene]-2-oxindole],IC50,v-abl kinase [1],400 nM
same,IC50,v-abl kinase [2],400 nM
